In patent US12668591B2, “1,2,4-oxadiazole derivatives as histone deacetylase 6 inhibitors” (Oryzon Genomics, S.A., priority 2017, dated 2026):

Experiments:
[1] = target: T1, HDAC6 (Homo sapiens, UniProt Q9UBN7); experiment: HDAC6 enzyme inhibition assay (fluorimetric); type: biochemical; settings: 1 μM compound; 3 h pre-incubation; recombinant full length HDAC6; read-out: HDAC6 % inh @ 1 μM
T1 sequence (Q9UBN7 1-1215): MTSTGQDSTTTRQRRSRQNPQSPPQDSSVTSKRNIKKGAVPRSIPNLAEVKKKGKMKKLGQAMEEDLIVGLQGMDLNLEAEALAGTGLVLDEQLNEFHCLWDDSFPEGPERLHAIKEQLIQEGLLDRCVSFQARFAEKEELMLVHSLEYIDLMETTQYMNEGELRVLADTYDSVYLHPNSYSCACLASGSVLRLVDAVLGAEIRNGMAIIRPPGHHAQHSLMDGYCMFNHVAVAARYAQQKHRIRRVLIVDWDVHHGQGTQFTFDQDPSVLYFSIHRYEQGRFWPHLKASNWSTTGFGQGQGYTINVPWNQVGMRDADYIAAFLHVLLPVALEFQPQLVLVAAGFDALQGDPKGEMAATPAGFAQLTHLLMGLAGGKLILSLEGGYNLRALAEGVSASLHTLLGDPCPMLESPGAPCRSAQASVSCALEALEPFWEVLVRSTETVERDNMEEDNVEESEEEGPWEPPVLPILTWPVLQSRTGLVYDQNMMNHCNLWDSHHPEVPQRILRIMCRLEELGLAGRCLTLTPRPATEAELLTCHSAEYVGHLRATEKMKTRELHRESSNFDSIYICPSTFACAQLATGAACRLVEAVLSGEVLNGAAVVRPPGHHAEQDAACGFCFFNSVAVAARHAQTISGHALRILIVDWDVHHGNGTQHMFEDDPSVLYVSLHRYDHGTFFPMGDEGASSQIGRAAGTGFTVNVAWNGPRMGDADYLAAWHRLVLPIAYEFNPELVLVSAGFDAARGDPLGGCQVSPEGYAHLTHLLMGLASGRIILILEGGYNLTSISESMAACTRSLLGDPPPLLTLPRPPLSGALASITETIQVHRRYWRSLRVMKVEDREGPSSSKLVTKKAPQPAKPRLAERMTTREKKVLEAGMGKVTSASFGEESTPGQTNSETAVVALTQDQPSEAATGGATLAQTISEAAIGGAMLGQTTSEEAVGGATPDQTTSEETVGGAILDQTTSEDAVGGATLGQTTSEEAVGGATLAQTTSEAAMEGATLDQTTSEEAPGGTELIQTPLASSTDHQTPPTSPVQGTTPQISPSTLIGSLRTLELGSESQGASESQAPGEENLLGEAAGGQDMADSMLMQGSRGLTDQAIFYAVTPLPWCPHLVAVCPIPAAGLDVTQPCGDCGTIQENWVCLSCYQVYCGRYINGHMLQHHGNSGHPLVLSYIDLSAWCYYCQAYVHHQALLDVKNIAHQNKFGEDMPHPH
Protocol: (§1) HDAC6 and HDAC2 Enzyme Inhibition Assay
(§2) A fluorimetric assay was used for testing the activity of compounds of the invention against HDAC6 and HDAC2.
(§3) The compounds were dissolved in DMSO. Serial dilutions were prepared in DMSO and then diluted 1:10 in HDAC assay buffer (Tris-buffered solution, BPS Bioscience Inc. #50031). 5 μl of the compound dilution was added to a 50 μl reaction so that the final concentration of DMSO was 1%.
(§4) The compounds were pre-incubated in duplicate at RT for 3 hours in a mixture containing HDAC assay buffer, 5 μg BSA and recombinant HDAC enzyme (see table above). The enzymatic reactions were initiated by the addition of a fluorogenic, acetylated peptide substrate based on a histone protein (BPS Bioscience Inc. #50037) to a final concentration of 10 μM. The enzymatic reaction proceeded for 30 minutes at 37° C. Then, 50 μl of 2× HDAC Developer, which contains peptidase activity and Trichostatin A (BPS Bioscience Inc. #50030) was added and the plate was incubated at RT for an additional 15 minutes. Fluorescence intensity was measured at an excitation of 360 nm and an emission of 460 nm using a Tecan Infinite M1000 microplate reader.
(§5) Trichostatin A (TSA, Selleckchem #S1045) was used as reference inhibitor.
(§6) The fluorescent intensity data were analyzed using the computer software Graphpad Prism (GraphPad Software, San Diego, CA). 100% activity was defined as the fluorescent intensity (Ft) in the absence of the compound. 0% activity was defined as the fluorescent intensity (Fb) in the absence of the enzyme. The percent activity in the presence of each compound was calculated according to the following equation: % activity=(F−Fb)/(Ft−Fb), where F=the fluorescent intensity in the presence of the compound.

[2] = target: T2, HDAC2 (Homo sapiens, UniProt Q92769); experiment: HDAC2 enzyme inhibition assay (fluorimetric); type: biochemical; settings: 1 μM compound; 3 h pre-incubation; recombinant full length HDAC2; read-out: HDAC2 % inh @ 1 μM
T2 construct: (full length with C-terminal His-tag); His (C); purchased BPS Bioscience Inc. 50002
Protocol: as §1, §2, §3, §4, §5, §6

[3] = target: T1, HDAC6; experiment: In vitro cell-based assay: acetylation levels of Alpha-Tubulin by Western Blot in MOLP8 cells; design: endogenous in cells; host or cells: MOLP8; settings: 18 h, acetyl-alpha-tubulin relative band intensity, ACY-1215 1 μM = 100%
Protocol: In Vitro Cell-Based Assay
In order to determine the cellular activity of HDAC6 upon treatment with HDAC6 inhibitors, acetylation levels of Alpha-Tubulin (a HDAC6-specific substrate) were measured by Western Blot. For this, MOLP8 cells were seeded in 6-well plates at a cell density of 500.000 cells/well and treated with the selected compounds at 5 and 1 μM for 18 h at 37° C. and 5% CO2 in a humidified tissue culture incubator. Consecutively, cell pellets were collected and whole protein extracts prepared using RIPA buffer (SIGMA) supplemented with 1× protease inhibitors (cOmplete mini, Roche). Protein concentration was determined with Bradford's reagent (Bio-Rad) as per manufacturer's instructions, and 7 μg of total protein were loaded into pre-cast 10% NuPAGE Novex gels (Life Technologies). Gels were run in […] (Life Technologies) and proteins were transferred using the iBlot 2 Dry Blotting System (Life Technologies). Blots were subsequently rinsed in distilled water and stained with Ponceau S solution (SIGMA). Blots were then washed in distilled water to remove Ponceau excess and scanned with the Epson Perfection V600 Photo professional Scanner. After this, blots were de-stained and blocked in 5% milk/PBS-Tween 0.1% for 1 h at room temperature followed by incubation with anti-Acetyl-alpha Tubulin (SIGMA cat. #T7451, 1:10.000 dilution) and anti-Beta-actin (SIGMA, cat. #A5316, 1:2.000 dilution) primary antibodies in 5% milk/PBS-T 0.1%, overnight at 4° C. on a shaking platform. After incubation, blots were washed 3 times for 5 minutes each in PBS-Tween 0.5% and incubated with anti-mouse HRP-conjugated secondary antibody (Jackson Immuno Research, cat. #115-035-068) at 1:8.000 in 5% milk/PBS-Tween 0.1%, 1 h at room temperature on a shaking platform. After 3 washes of 5 minutes each with PBS-Tween 0.5% and 1 wash in PBS 1×, blots were developed with ECL Plus (GE Healthcare) and the chemiluminescent reaction imaged with the G:Box Chemi XRQ (Syngene) imaging system. WB and Ponceau images were analysed with ImageJ software, WB band intensities normalized by either total protein or Beta-actin content and made relative to ACY-1215 1 μM (equivalent to 100%). ACY-1215 is a HDAC6 inhibitor, and is also known as ricolinostat, with chemical name 2-(diphenylamino)-N-[7-(hydroxyamino)-7-oxoheptyl]-5-pyrimidinecarboxamide. Percentage of band intensities was classified as follows: […]

T2 sequence (Q92769 whole entry): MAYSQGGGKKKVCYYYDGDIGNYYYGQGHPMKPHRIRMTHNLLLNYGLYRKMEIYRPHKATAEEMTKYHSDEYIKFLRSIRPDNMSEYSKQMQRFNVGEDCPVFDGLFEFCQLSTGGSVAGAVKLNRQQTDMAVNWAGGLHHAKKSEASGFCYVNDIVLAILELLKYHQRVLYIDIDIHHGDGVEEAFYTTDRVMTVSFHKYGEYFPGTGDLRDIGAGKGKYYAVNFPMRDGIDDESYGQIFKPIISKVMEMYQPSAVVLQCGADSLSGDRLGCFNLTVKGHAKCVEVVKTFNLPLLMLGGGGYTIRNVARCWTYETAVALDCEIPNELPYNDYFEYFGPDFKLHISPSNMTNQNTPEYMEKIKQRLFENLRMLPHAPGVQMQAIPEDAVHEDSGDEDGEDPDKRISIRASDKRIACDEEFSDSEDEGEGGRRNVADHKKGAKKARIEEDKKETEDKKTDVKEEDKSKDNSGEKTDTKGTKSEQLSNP

FC1(F)CCN(CCn2ccc3cnc(-c4cc(-c5noc(C(F)(F)F)n5)ccn4)cc32)CC1 [Example 1ab, 3-(2-(1-(2-(4,4-Difluoropiperidin-1-yl)ethyl)-1H-pyrrolo[3,2-c]pyridin-6-yl)pyridin-4-yl)-5-(trifluoromethyl)-1,2,4-oxadiazole]
inhibition at 1 µM [1]: 93%
inhibition at 1 µM [2]: 38%
Cellular activity @1 uM [3]: ++ (150-300)
Cellular activity @5 uM [3]: ++ (150-300)

CN1CCC(C(=O)Nc2ccc(-c3cc(-c4noc(C(F)(F)F)n4)ccn3)nc2)CC1 [Example 1ac, 1-Methyl-N-(4′-(5-(trifluoromethyl)-1,2,4-oxadiazol-3-yl)-[2,2′-bipyridin]-5-yl)piperidine-4-carboxamide]
inhibition at 1 µM [1]: 78%
inhibition at 1 µM [2]: 18%
Cellular activity @1 uM [3]: + (50-150)
Cellular activity @5 uM [3]: ++ (150-300)

O=C(CC1CCC1)Nc1ccnc(-c2cc(-c3noc(C(F)(F)F)n3)ccn2)c1 [Example 1ae, 2-Cyclobutyl-N-(4′-(5-(trifluoromethyl)-1,2,4-oxadiazol-3-yl)-[2,2′-bipyridin]-4-yl)acetamide]
inhibition at 1 µM [1]: 85%
inhibition at 1 µM [2]: 5%
Cellular activity @1 uM [3]: + (50-150)
Cellular activity @5 uM [3]: + (50-150)

CCCn1cc(CO)c2cc(-c3cc(-c4noc(C(F)(F)F)n4)ccn3)ncc21 [Example 1ah, (1-Propyl-5-(4-(5-(trifluoromethyl)-1,2,4-oxadiazol-3-yl)pyridin-2-yl)-1H-pyrrolo[2,3-c]pyridin-3-yl)methanol]
inhibition at 1 µM [1]: 96%
inhibition at 1 µM [2]: 35%
Cellular activity @1 uM [3]: + (50-150)
Cellular activity @5 uM [3]: ++ (150-300)

FC(F)(F)c1nc(-c2ccnc(-c3cc4[nH]ccc4cn3)c2)no1 [Example 1ak, 3-(2-(1H-Pyrrolo[3,2-c]pyridin-6-yl)pyridin-4-yl)-5-(trifluoromethyl)-1,2,4-oxadiazole]
inhibition at 1 µM [1]: 90%
inhibition at 1 µM [2]: 14%
Cellular activity @1 uM [3]: + (50-150)
Cellular activity @5 uM [3]: ++ (150-300)

FC(F)(F)c1nc(-c2ccnc(-c3cc4c(ccn4Cc4ccncc4)cn3)c2)no1 [Example 1al, 3-(2-(1-(Pyridin-4-ylmethyl)-1H-pyrrolo[3,2-c]pyridin-6-yl)pyridin-4-yl)-5-(trifluoromethyl)-1,2,4-oxadiazole]
inhibition at 1 µM [1]: 92%
inhibition at 1 µM [2]: 31%
Cellular activity @1 uM [3]: ++ (150-300)
Cellular activity @5 uM [3]: ++ (150-300)

Cn1cc(-c2cn[nH]c2)c2cc(-c3cc(-c4noc(C(F)(F)F)n4)ccn3)ncc21 [Example 1ap, 3-(2-(1-Methyl-3-(1H-pyrazol-4-yl)-1H-pyrrolo[2,3-c]pyridin-5-yl)pyridin-4-yl)-5-(trifluoromethyl)-1,2,4-oxadiazole]
inhibition at 1 µM [1]: 86%
inhibition at 1 µM [2]: 6%
Cellular activity @1 uM [3]: + (50-150)
Cellular activity @5 uM [3]: ++ (150-300)

CCCn1cc(CN2CCOCC2)c2cc(-c3cc(-c4noc(C(F)(F)F)n4)ccn3)ncc21 [Example 1h, 4-((1-Propyl-5-(4-(5-(trifluoromethyl)-1,2,4-oxadiazol-3-yl)pyridin-2-yl)-1H-pyrrolo[2,3-c]pyridin-3-yl)methyl)morpholine]
inhibition at 1 µM [1]: 96%
Cellular activity @1 uM [3]: + (50-150)
Cellular activity @5 uM [3]: ++ (150-300)

CCN(CC)CCCOc1cnc(-c2cc(-c3noc(C(F)(F)F)n3)ccn2)nc1 [Example 1m, N,N-Diethyl-3-(2-(4-(5-(trifluoromethyl)-1,2,4-oxadiazol-3-yl)pyridin-2-yl)pyrimidin-5-yloxy)propan-1-amine]
inhibition at 1 µM [1]: 81%
Cellular activity @1 uM [3]: − (<50)
Cellular activity @5 uM [3]: + (50-150)

FC(F)(F)c1nc(-c2ccnc(-c3cc4c(ccn4CC4CCOCC4)cn3)c2)no1 [Example 1r, 3-(2-(1-((Tetrahydro-2H-pyran-4-yl)methyl)-1H-pyrrolo[3,2-c]pyridin-6-yl)pyridin-4-yl)-5-(trifluoromethyl)-1,2,4-oxadiazole]
inhibition at 1 µM [1]: 92%
Cellular activity @1 uM [3]: ++ (150-300)
Cellular activity @5 uM [3]: ++ (150-300)

FC(F)(F)c1nc(-c2ccnc(-c3cc(OCCN4CCOCC4)ccn3)c2)no1 [Example 1t, 4-(2-((4′-(5-(Trifluoromethyl)-1,2,4-oxadiazol-3-yl)-[2,2′-bipyridin]-4-yl)oxy)ethyl)morpholine]
inhibition at 1 µM [1]: 88%
Cellular activity @1 uM [3]: − (<50)
Cellular activity @5 uM [3]: + (50-150)
